Activity calls are given as the source filed them.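 How the source made its calls: active means AC50, the dose giving half-maximal effect, exceeds a fixed cutoff for a compound that rescues yeast growth under heat; inactive means the rest, inconclusive results apart.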
The molecules below were run on S. cerevisiae Burl-1 ts mutant growth, BacTiter-Glo, 38.5C 24 h (assay: growth induction of Burl-1 ts yeast mutant, dose response, counter-screen for SUMOylation pathway inhibitor project, whole organism, S. cerevisiae, luminescence (AID 463199)).

Row | SMILES | AC50
1 | COc1ccccc1CNC(=O)[C@H](C)NC(=O)C1CCN(C(=O)[C@@H](N)CC(C)C)CC1 | > 42 µM (inactive)
2 | O=C(OCc1nnc(-c2ccccc2)o1)c1ccc([N+](=O)[O-])o1 | > 42 µM (inactive)
3 | CCOC(=O)C1=C(C)NC(=O)CC1c1cc2c(cc1[N+](=O)[O-])OCO2 (configuration not stated) | 22.3 µM
4 | Cc1cccn2c(=O)c3cc(C(=O)NCc4cccnc4)c(=N)n(C(C)C)c3nc12 | > 42 µM (inactive)
5 | CC(=O)Nc1cccc(OCC(O)Cn2c(C)nc3ccccc32)c1 (configuration not stated) | > 42 µM (inactive)
6 | O=C(CC1(CC2=NS(=O)(=O)c3ccccc3N2)CCCC1)NCCc1ccccc1 | > 42 µM (inactive)
7 | CN(C=O)CP(=O)(O)CN(C)C=O | > 42 µM (inactive)
8 | COc1ccc(C(=O)COc2ccc3ccc(=O)oc3c2)cc1 | > 42 µM (inactive)
9 | O=C(CP(=O)(c1ccccc1)c1ccccc1)N1CCOCC1 | > 42 µM (inactive)
10 | CC(=O)Nc1ccc(C(=O)NCCCOC(C)C)cc1 | > 42 µM (inactive)
11 | N#Cc1c(Cn2cncn2)nc(=O)n(-c2ccc(Cl)cc2)c1N | > 42 µM (inactive)
12 | CCOC(=O)C(NC(=O)c1ccccc1)(N1CCOCC1)C(F)(F)F (configuration not stated) | > 42 µM (inactive)
13 | CC(Oc1ccc([N+](=O)[O-])cc1)C(=O)NCCCN1CCOCC1 (configuration not stated) | > 42 µM (inactive)
14 | O=c1/c(=C/c2ccco2)sc2nc(-c3ccccc3Br)nn12 | > 42 µM (inactive)
15 | CC1(C)CNc2cc([N+](=O)[O-])ccc2S1 | > 42 µM (inactive)
16 | COc1cc(C(C2=C(O)CC(C)(C)CC2=O)C2C(=O)CC(C)(C)CC2=O)cc(OC)c1OC (configuration not stated) | > 42 µM (inactive)
17 | Cc1cc(C)n(-c2nc(-c3cccc(Cl)c3)cs2)n1 | > 42 µM (inactive)
18 | CCC(CC)NC(=O)c1oc2ccccc2c1COc1ccccc1 | > 42 µM (inactive)
19 | CCOC(=O)C1CCN(CC(O)COCc2ccccc2)CC1 (configuration not stated) | > 42 µM (inactive)
20 | CC1CN(CCCOc2ccc([N+](=O)[O-])cc2)CC(C)O1 (configuration not stated) | > 42 µM (inactive)
21 | COc1ccc(-c2oc3ccc(-c4cc(OC)c(OC)c(OC)c4)cc3c2C(=O)c2ccc(OC)nc2)cc1 | > 42 µM (inactive)
22 | CCC(C)c1ccc(S(=O)(=O)N2CCN(C(=O)COc3ccc4c(C)cc(=O)oc4c3)CC2)cc1 (configuration not stated) | > 42 µM (inactive)
23 | COc1ccc(NC(=O)CN(C)C(=O)/C=C/c2cn(-c3ccccc3)nc2-c2ccc(C)cc2)cc1 | > 42 µM (inactive)
24 | COC(=O)c1c(C)cc(O)c(C=O)c1O | > 42 µM (inactive)
25 | O=C(c1ccncc1)N(Cc1ccccc1)Cc1nc2ccccc2c(=O)[nH]1 | > 42 µM (inactive)

Row | SMILES | AC50
26 | Cc1ccc(-c2ccc(/C=N/n3cnnc3)o2)cc1 | > 42 µM (inactive)
27 | O=C(Cc1ccc(Cl)cc1)NC(=S)Nc1ccccc1N1CCOCC1 | > 42 µM (inactive)
28 | CN(C(=O)COC(=O)c1cc2ccccc2cc1O)c1c(N)n(Cc2ccccc2)c(=O)[nH]c1=O | > 42 µM (inactive)
29 | CCOC(=O)c1oc2cc(OC(C)=O)ccc2c(=O)c1-c1ccc(OC)c(OC)c1 | > 42 µM (inactive)
30 | Cc1cc(-c2nnc3sc(C4CCCCC4)nn23)n[nH]1 | > 42 µM (inactive)
31 | CC[C@H]1CCCCc2ccccc2[C@@H](C(=O)C[C@@H](O)CC(C)=O)OC1=O | > 42 µM (inactive)
32 | O=C(c1cc(Cl)c(=O)n(Cc2ccc(Cl)cc2)c1)N1CCOCC1 | > 42 µM (inactive)
33 | CN(C)C(=O)c1cc(C(=O)c2ccc(C(F)(F)F)cc2F)c[nH]1 | > 42 µM (inactive)
34 | C/C(=N\N1CCN(Cc2ccccc2Cl)CC1)c1ccc([N+](=O)[O-])cc1 | > 42 µM (inactive)
35 | CC(C)(C)CC(=O)Nc1cc(S(=O)(=O)N2CCOCC2)ccc1N1CCCC1 | > 42 µM (inactive)
36 | O=C(c1ccc(F)cc1)C(CN1CCOCC1)c1ccccc1 (configuration not stated) | > 42 µM (inactive)
37 | CC(=O)N1c2ccc([N+](=O)[O-])cc2NC(=O)CC1C (configuration not stated) | > 42 µM (inactive)
38 | N#CC(C#N)=CN=c1ccn(Cc2ccc(Cl)cc2Cl)cc1 | > 42 µM (inactive)
39 | COc1ccc(NC(=O)c2cc(S(=O)(=O)Nc3ccc(OC)cc3)cs2)cc1 | > 42 µM (inactive)
40 | O=C(OCCCCOC(=O)c1ccccc1)c1ccccc1 | > 42 µM (inactive)
41 | COc1ccc2nc(NC(=O)c3cc(S(=O)(=O)N4CCOCC4)ccc3C)sc2c1 | > 42 µM (inactive)
42 | O=C(Nc1cccnc1Cl)c1cc2ccccc2o1 | > 42 µM (inactive)
43 | COC(=O)CCC(=O)OC1(C)C(=O)C2=CN(CCc3c[nH]c4ccccc34)C(c3ccc(OC)cc3)=CC2=C(Br)C1=O (configuration not stated) | > 42 µM (inactive)
44 | Fc1cccc(F)c1-c1nc(-c2ccncc2)no1 | > 42 µM (inactive)
45 | O=C(Nc1ccc2[nH]c(=O)[nH]c2c1)c1c(F)c(F)c(F)c(F)c1F | 25.8 µM
46 | CCc1ccccc1NC(=S)NNC(=O)c1ccccc1Cl | > 42 µM (inactive)
47 | COCCCNCC(O)COc1cccc2[nH]c(C)cc12 (configuration not stated) | > 42 µM (inactive)
48 | CCCCCCNc1c(C(=O)OCC)c(=O)[nH]c2ccccc12 | > 42 µM (inactive)
49 | O=[N+]([O-])c1c(NCCCO)cc(Sc2nc3ccccc3s2)c2nonc12 | > 42 µM (inactive)
50 | CN(C)CCNC(=O)c1onc(CSc2ccc(F)c(F)c2)c1C(=O)NCCN(C)C | > 42 µM (inactive)

Row | SMILES | AC50
51 | O=C(NCCCN1CCN(c2ccccc2F)CC1)Nc1ccccc1[N+](=O)[O-] | 25.4 µM
52 | O=C(CN1CCN(c2ccccc2F)CC1)Nc1nnc(C(F)(F)F)s1 | > 42 µM (inactive)
53 | O=C(/C=C/c1cccc([N+](=O)[O-])c1)NCCSCc1ccc(Cl)cc1Cl | > 42 µM (inactive)
54 | COc1cc(CN2CCC(Oc3cc(C(=O)NC4CC4)ccc3OC)CC2)cc(OC)c1 | 16.9 µM
55 | COC(=O)c1sc(NC(=O)c2ccc(Cn3cc(Cl)cn3)o2)c(C#N)c1C | > 42 µM (inactive)
56 | O=C(CC(c1ccccc1)c1ccccc1O)NCCN1CCOCC1 (configuration not stated) | > 42 µM (inactive)
57 | Cc1nnsc1C(=O)N1CCC(CO)(Cc2ccccc2Cl)CC1 | > 42 µM (inactive)
58 | c1ccc2[nH]c(CSc3nccs3)nc2c1 | > 42 µM (inactive)
59 | Cc1ccc(-c2[nH]ncc2CNCCc2cnn(-c3ccccc3)c2)cc1C | > 42 µM (inactive)
60 | CCCc1cc(=O)oc2c3c(c4c(c12)OC(C)(C)C=C4)OC(C)C(C)C3O (configuration not stated) | > 42 µM (inactive)
61 | Cc1nc2ccccc2c(=O)n1CC(=O)N1CCOCC1 | > 42 µM (inactive)
62 | CC(=O)Nc1ccc(S(=O)(=O)Nc2cccc(-c3ccc4nncn4n3)c2)cc1 | > 42 µM (inactive)
63 | COc1ccc(C2=C(N)c3ccccc3C2=O)cc1 | > 42 µM (inactive)
64 | COc1cc(C(=O)Nc2ccc3c(c2)OCCO3)ccc1-n1cnnn1 | > 42 µM (inactive)
65 | Cc1ccc(CC2CC(=O)N(c3ccc4c(c3)OCCO4)C2=O)cc1 (configuration not stated) | > 42 µM (inactive)
66 | O=C(CSc1nnc(CNC(=O)c2ccccc2)o1)NCc1ccco1 | > 42 µM (inactive)
67 | CCNc1nc(NCC)nc(SCCOC(=O)Nc2ccccc2)n1 | > 42 µM (inactive)
68 | O=C(c1ccco1)N1CCN(CC(=O)N2c3ccccc3CCc3ccccc32)CC1 | > 42 µM (inactive)
69 | COCCNC(=O)C(c1ccc(C)cc1)N(C(=O)CCC(=O)Nc1ccccn1)c1cccc(C)c1 (configuration not stated) | > 42 µM (inactive)
70 | O=C(NNC(=O)c1csc(N2CCOCC2)n1)c1ccc(Cl)nc1 | > 42 µM (inactive)
71 | CC(=O)Nc1cccc(OCC(=O)NS(=O)(=O)c2ccc(C)cc2)c1 | > 42 µM (inactive)
72 | CCOc1ccc(NC(=O)C2CC(=O)N3CCCN=C3S2)cc1 (configuration not stated) | > 42 µM (inactive)
73 | CC(C)CC(=O)Nc1ccc(C(=O)CN2C(=O)NC3(CCOc4ccccc43)C2=O)cc1 (configuration not stated) | > 42 µM (inactive)
74 | COCCN1C=C(C(=O)OC)C(c2cc3c(cc2Br)OCO3)C(C(=O)OC)=C1 | > 42 µM (inactive)
75 | CC(C)(C)c1cc(NCCCn2ccnc2)n2ncc(-c3ccc(Cl)cc3)c2n1 | > 42 µM (inactive)

Row | SMILES | AC50
76 | CCCNC(=O)c1cc2c(C(F)(F)F)nn(C)c2s1 | > 42 µM (inactive)
77 | c1ccc2c(C[C@@H]3CNCCN3CCCCC3CCCCC3)cccc2c1 | > 42 µM (inactive)
78 | Fc1ccc2nc(C3CCN(Cc4nc(CC5CC5)no4)CC3)[nH]c2c1 | > 42 µM (inactive)
79 | CC1(C)CC(=O)C(CC2CCCCC2=O)C(=O)C1 (configuration not stated) | > 42 µM (inactive)
80 | CCN(CC)S(=O)(=O)c1ccc(S(=O)(=O)N2CCC(C(=O)NC3CCN(Cc4ccccc4)CC3)CC2)cc1 | > 42 µM (inactive)
81 | COc1cccc(OC)c1C(=O)Nc1ccc2c(c1)N(S(=O)(=O)c1cccs1)CCC2 | > 42 µM (inactive)
82 | COc1ccc(C(=O)Nn2c(SCC(=O)NCc3ccccc3)nc3ccccc3c2=O)cc1 | > 42 µM (inactive)
83 | CCn1c(SC(=O)NC2CCCCC2)nnc1-c1cccs1 | > 42 µM (inactive)
84 | CCCN1C(=O)c2ccc(C(=O)Nc3nccs3)cc2C1=O | > 42 µM (inactive)
85 | Cn1c(CN2CCOCC2)nnc1SCC(=O)Nc1cc(Cl)ccc1Cl | > 42 µM (inactive)
86 | CC(C(=O)N1CCN(C(=O)c2ccco2)CC1)n1sc2ccccc2c1=O (configuration not stated) | > 42 µM (inactive)
87 | O=C(CCN1C(=O)S/C(=C/c2ccccc2)C1=O)Nc1ccc(O)c(C(=O)O)c1 | > 42 µM (inactive)
88 | CCC(CC)C(=O)N1CCCC(c2nc(-c3cccs3)no2)C1 (configuration not stated) | > 42 µM (inactive)
89 | COc1ccc(N(CC(=O)NCc2ccc(C)cc2)S(=O)(=O)c2c(C)nn(C)c2C)cc1 | > 42 µM (inactive)
90 | COc1ccc2c(c1)[C@H]1[C@H](CO2)[C@H](c2ccccc2)[C@]2(C)C(=O)Nc3cc(C)ccc3C(=O)N12 | > 42 µM (inactive)
91 | Cc1ccc(Nc2cc(C)nc3c(C)ccc([N+](=O)[O-])c23)cc1 | > 21 µM (inactive)
92 | COc1ccc(C)cc1S(=O)(=O)N1CCC(C(=O)NCCc2ccccc2)CC1 | > 42 µM (inactive)
93 | COc1ccc(N=C2SC(C(=O)O)CC(=O)N2Cc2ccc(OC)c(OC)c2)cc1 (configuration not stated) | > 42 µM (inactive)
94 | CCc1cc(/C(Cc2ccccn2)=N\O)c(O)cc1O | > 42 µM (inactive)
95 | CN(C)CC/C=C1/c2cc(F)ccc2Sc2ccc(Cl)cc21 | > 42 µM (inactive)
96 | Cc1nn(-c2ccccc2)c(N)c1N=Nc1cccc(S(=O)(=O)N2CCOCC2)c1 | > 42 µM (inactive)
97 | Nn1c(SCc2cc([N+](=O)[O-])cc3c2OCOC3)nnc1-c1ccccn1 | > 42 µM (inactive)
